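Protocol summary: plate cells (96-well), add compound at 5 concentrations, incubate 48 h, interpolate endpoints linearly. The concentration for 50% growth inhibition is given as GI50.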 Activity calls are given as the source filed them. Cut-off read from the data, not from the text of the source: active = GI50 up to about 1.1 µM and inactive = higher.
Legend:
Test in all cases: NCI anticancer screen, dose series, 48 h
786-0 = test system: 786-0
NCI-H226 = test system: NCI-H226
CAKI-1 = test system: CAKI-1
Malme-3M = test system: Malme-3M
HCC 2998 = test system: HCC 2998
UACC-62 = test system: UACC-62
HT-29 = test system: HT-29
SK-MEL-2 = test system: SK-MEL-2
UACC-257 = test system: UACC-257
LOX IMVI = test system: LOX IMVI
OVCAR-8 = test system: OVCAR-8
RXF 393 = test system: RXF 393
M14 = test system: M14
HL-60 = test system: HL-60
EKVX = test system: EKVX
PC-3 = test system: PC-3
MDA-MB-435 = test system: MDA-MB-435
BT-549 = test system: BT-549
DU-145 = test system: DU-145
Hs-578T = test system: Hs-578T

Row | Structure (SMILES) | GI50 (786-0) | GI50 (NCI-H226) | GI50 (CAKI-1) | GI50 (Malme-3M) | GI50 (HCC 2998) | GI50 (UACC-62) | GI50 (HT-29) | GI50 (SK-MEL-2) | GI50 (UACC-257) | GI50 (LOX IMVI) | GI50 (OVCAR-8) | GI50 (RXF 393) | GI50 (M14) | GI50 (HL-60) | GI50 (EKVX) | GI50 (PC-3) | GI50 (MDA-MB-435) | GI50 (BT-549) | GI50 (DU-145) | GI50 (Hs-578T)
1 | O=C(/C=C\c1ccc(Cl)c(Cl)c1)c1ccc(Cl)cc1Cl | 17.4 µM (inactive) | 9.51 µM (inactive) | 27.3 µM (inactive) | 17.9 µM (inactive) | 16.7 µM (inactive) | 18.5 µM (inactive) | 16.8 µM (inactive) | 19.7 µM (inactive) | 19.9 µM (inactive) | 5.74 µM (inactive) | 19.1 µM (inactive) | 16.1 µM (inactive) | 21.9 µM (inactive) | 4.73 µM (inactive) | 23.4 µM (inactive) | – | – | – | – | –
2 | SCc1ccc(CS)s1 | > 100 µM (inactive) | – | – | – | > 100 µM (inactive) | > 100 µM (inactive) | > 100 µM (inactive) | – | > 100 µM (inactive) | > 100 µM (inactive) | > 100 µM (inactive) | – | > 100 µM (inactive) | > 100 µM (inactive) | > 100 µM (inactive) | > 100 µM (inactive) | > 100 µM (inactive) | > 100 µM (inactive) | > 100 µM (inactive) | –
3 | CCCN(CCC)C(=O)c1c(Cl)c2cccnc2n2c(C)cnc12 | > 100 µM (inactive) | > 100 µM (inactive) | 22.9 µM (inactive) | > 100 µM (inactive) | 97.9 µM (inactive) | 52.7 µM (inactive) | > 100 µM (inactive) | – | 95.3 µM (inactive) | > 100 µM (inactive) | > 100 µM (inactive) | 35 µM (inactive) | 61.2 µM (inactive) | 23.1 µM (inactive) | > 100 µM (inactive) | 23.9 µM (inactive) | 27.2 µM (inactive) | – | > 100 µM (inactive) | > 100 µM (inactive)
4 | CC(=O)O[C@H]1CC[C@@]2(C)C(CC[C@]3(C)C2CC[C@]2(C)Oc4c(C)cc(O)cc4C[C@@H]23)C1(C)C (stereo partly drawn) | 1.99 µM (inactive) | 15.9 µM (inactive) | 8.99 µM (inactive) | 10.1 µM (inactive) | 7.6 µM (inactive) | 8.59 µM (inactive) | 11.2 µM (inactive) | 7.52 µM (inactive) | 8.47 µM (inactive) | 8.75 µM (inactive) | 8.93 µM (inactive) | 2.88 µM (inactive) | 11.9 µM (inactive) | 3.82 µM (inactive) | 19.5 µM (inactive) | – | – | – | – | –
5 | CC(=O)SCCC(NC(=S)Nc1ccccc1)P(=O)(Oc1ccccc1)Oc1ccccc1 (stereo not drawn) | > 100 µM (inactive) | > 100 µM (inactive) | > 100 µM (inactive) | > 100 µM (inactive) | > 100 µM (inactive) | > 100 µM (inactive) | > 100 µM (inactive) | – | > 100 µM (inactive) | > 100 µM (inactive) | > 100 µM (inactive) | > 100 µM (inactive) | > 100 µM (inactive) | > 100 µM (inactive) | > 100 µM (inactive) | – | > 100 µM (inactive) | – | > 100 µM (inactive) | > 100 µM (inactive)
6 | CC1(C)CC[C@]2(C(=O)O)CC[C@]3(C)C(=CC[C@@H]4[C@@]5(C)C[C@H](O)[C@H](O)[C@@](C)(CO)C5=CC[C@]43C)[C@@H]2C1 | 55.2 µM (inactive) | – | 55 µM (inactive) | > 100 µM (inactive) | 35.4 µM (inactive) | > 100 µM (inactive) | 55.5 µM (inactive) | > 100 µM (inactive) | > 100 µM (inactive) | 71.3 µM (inactive) | 37.2 µM (inactive) | – | > 100 µM (inactive) | > 100 µM (inactive) | 53.2 µM (inactive) | 67.9 µM (inactive) | > 100 µM (inactive) | – | 39.6 µM (inactive) | 37.7 µM (inactive)
7 | COc1c2c(cc3nc4ccccc4nc13)CC[C@H](NC(C)=O)c1cc(=O)c(SC)ccc1-2 | 0.506 µM (active) | 1.08 µM (active) | 5.62 µM (inactive) | 0.288 µM (active) | 1.25 µM (inactive) | 0.437 µM (active) | 1.04 µM (active) | 3.05 µM (inactive) | 1.59 µM (inactive) | 0.755 µM (active) | 1.63 µM (inactive) | 2.74 µM (inactive) | 0.55 µM (active) | – | 1.01 µM (active) | 0.614 µM (active) | 0.132 µM (active) | – | 2.47 µM (inactive) | 0.126 µM (active)
8 | COc1ccc2nc3cc(Cl)ccc3c(NCCCNCCCNc3c4ccc(Cl)cc4nc4ccc(OC)cc34)c2c1 | < 0.01 µM (active) | < 0.01 µM (active) | 0.0156 µM (active) | 0.0604 µM (active) | 0.0178 µM (active) | 0.0196 µM (active) | < 0.01 µM (active) | 0.0404 µM (active) | 0.251 µM (active) | < 0.01 µM (active) | < 0.01 µM (active) | 0.224 µM (active) | 0.0266 µM (active) | 0.0278 µM (active) | 0.137 µM (active) | 0.0241 µM (active) | 0.0374 µM (active) | 0.21 µM (active) | 0.0373 µM (active) | –
